For one data set, the target named is T1, M2 muscarinic receptor (Homo sapiens, UniProt P08172).
T1 sequence (P08172 1-466): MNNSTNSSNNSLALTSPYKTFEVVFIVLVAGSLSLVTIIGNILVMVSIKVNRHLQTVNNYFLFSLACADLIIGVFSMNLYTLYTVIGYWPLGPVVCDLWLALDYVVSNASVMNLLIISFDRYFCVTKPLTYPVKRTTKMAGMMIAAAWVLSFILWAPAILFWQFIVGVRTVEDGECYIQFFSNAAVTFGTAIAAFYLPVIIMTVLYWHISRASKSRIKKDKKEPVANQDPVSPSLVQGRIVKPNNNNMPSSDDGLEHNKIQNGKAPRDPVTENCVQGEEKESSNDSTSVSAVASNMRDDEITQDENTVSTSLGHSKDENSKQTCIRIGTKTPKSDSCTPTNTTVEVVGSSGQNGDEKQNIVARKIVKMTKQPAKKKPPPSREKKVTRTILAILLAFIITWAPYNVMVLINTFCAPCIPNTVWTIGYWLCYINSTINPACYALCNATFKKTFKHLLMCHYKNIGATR
The experiment in a line: R-SAT functional receptor assay, M2. As to conditions: for Emax: read-out: % Efficacy M2.

For data set [1], the target named is T2, M4 muscarinic receptor (Homo sapiens, UniProt P08173).
T2 sequence (P08173 1-479): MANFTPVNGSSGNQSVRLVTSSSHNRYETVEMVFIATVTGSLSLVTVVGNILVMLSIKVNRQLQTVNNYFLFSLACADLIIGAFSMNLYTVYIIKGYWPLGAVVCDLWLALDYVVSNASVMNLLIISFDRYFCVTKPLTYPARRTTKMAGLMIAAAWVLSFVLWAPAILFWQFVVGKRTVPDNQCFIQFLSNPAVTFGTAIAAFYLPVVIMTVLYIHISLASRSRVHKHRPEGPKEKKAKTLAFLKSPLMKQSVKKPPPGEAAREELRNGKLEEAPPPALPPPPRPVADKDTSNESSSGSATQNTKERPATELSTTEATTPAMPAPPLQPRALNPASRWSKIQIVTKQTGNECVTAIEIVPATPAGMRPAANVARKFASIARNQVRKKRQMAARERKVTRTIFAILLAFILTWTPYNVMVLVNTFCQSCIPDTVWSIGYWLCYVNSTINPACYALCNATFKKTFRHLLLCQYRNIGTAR
The experiment in a line: cell-based. As to conditions: read-out: % Efficacy M4.

Another data set addresses T3, M5 muscarinic receptor (Homo sapiens, UniProt P08912).
T3 construct: expressed in transfected cells
T3 sequence (P08912 1-532): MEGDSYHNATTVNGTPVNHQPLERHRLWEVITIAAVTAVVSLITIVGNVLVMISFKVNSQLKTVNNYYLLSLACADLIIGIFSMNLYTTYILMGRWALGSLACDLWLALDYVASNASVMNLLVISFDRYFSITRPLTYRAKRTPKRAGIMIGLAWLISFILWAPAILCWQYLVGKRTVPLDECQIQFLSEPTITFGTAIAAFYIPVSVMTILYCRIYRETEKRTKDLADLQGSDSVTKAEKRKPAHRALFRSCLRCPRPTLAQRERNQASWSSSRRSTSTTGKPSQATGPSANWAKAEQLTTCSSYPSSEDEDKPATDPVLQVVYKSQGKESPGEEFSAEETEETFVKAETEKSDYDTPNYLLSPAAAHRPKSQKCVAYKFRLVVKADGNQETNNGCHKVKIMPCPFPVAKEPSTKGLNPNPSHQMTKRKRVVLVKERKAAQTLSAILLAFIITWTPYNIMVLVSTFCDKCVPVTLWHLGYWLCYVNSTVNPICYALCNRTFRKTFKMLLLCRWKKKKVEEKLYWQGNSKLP
The experiment in a line: R-SAT functional receptor assay, M5. To be noted: for % Efficacy M5: relative to full agonist carbachol; for Emax: read-out: % Efficacy M5. It is filed as cell-based.

Another data set has as its target M3 muscarinic receptor (Homo sapiens, UniProt P20309). The experiment in a line: R-SAT functional receptor assay, M3. As to conditions: for Emax: read-out: % Efficacy M3.
Data set [2] addresses T2, M4 muscarinic receptor. As to conditions: R-SAT; relative to full agonist carbachol; ± standard deviation.
Data set [3] deals with T4, human M1 muscarinic receptors (Homo sapiens, UniProt P11229). The experiment in a line: cell-based. As to conditions: ± standard deviation.
T4 sequence (P11229 whole entry): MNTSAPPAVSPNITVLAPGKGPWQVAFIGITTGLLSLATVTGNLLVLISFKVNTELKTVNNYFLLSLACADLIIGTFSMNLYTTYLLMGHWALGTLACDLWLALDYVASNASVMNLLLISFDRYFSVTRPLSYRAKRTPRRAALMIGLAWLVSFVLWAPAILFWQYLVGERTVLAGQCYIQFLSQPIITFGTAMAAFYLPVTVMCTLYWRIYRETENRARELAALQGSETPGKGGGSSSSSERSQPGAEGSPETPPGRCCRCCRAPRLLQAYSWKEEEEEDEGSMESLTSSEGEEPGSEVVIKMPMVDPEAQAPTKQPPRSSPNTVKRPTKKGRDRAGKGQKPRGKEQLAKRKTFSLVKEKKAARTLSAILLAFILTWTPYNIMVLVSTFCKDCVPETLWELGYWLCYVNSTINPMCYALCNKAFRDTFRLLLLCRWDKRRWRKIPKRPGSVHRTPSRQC
The test system of data set [4] is hippocampal MAP kinase (MAPK) activity in CA1 pyramidal neurons. The experiment in a line: hippocampal MAP kinase activation assay after parenteral administration. Type of data set: in vivo, C57BL6 mice.
For data set [5], the target named is T4, human M1 muscarinic receptors. To be noted: R-SAT; relative to full agonist carbachol; ± standard deviation.
Data set [6] has the same target. As to conditions: PI hydrolysis; ± standard deviation.
The target is the same in data set [7]. The experiment in a line: cell-based.

Where “and” joins values, the source holds several entries; their conditions need not be identical. Equal entries are not always repeated. Where two headings read alike, the source gives them in different places.

Sequence of M3 muscarinic receptor (P20309 whole entry): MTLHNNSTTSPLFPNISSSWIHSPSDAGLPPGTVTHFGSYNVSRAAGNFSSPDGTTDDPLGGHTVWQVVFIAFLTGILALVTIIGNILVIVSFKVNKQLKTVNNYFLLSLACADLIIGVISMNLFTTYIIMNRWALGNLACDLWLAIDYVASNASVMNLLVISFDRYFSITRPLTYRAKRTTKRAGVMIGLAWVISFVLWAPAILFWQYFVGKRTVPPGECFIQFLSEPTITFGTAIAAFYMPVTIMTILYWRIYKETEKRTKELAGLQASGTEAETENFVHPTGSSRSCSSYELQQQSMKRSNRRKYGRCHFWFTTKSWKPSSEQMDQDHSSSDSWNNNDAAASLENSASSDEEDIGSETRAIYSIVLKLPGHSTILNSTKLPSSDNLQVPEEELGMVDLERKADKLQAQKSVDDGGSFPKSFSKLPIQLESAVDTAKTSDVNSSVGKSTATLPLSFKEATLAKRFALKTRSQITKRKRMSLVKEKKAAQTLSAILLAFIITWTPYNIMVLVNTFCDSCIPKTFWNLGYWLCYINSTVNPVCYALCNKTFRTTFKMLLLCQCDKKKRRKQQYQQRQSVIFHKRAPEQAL

Regarding `CN1CCN(C2=Nc3cc(Cl)ccc3Nc3ccccc32)CC1` [Clozapine, clozapine], the Emax at M2 muscarinic receptor was determined as 57 ± 4%; at M4 muscarinic receptor [1], 49 ± 6%. For the same compound, the “% Efficacy M5” value at M5 muscarinic receptor (R-SAT, ± standard deviation) is on record as “no response”.

As to `C[N+](C)(C)CCOC(N)=O` [Carbachol, carbachol], the values for the Emax on M4 muscarinic receptor [1] and on M5 muscarinic receptor were 96 ± 3% and 105 ± 3%, respectively.

Turning to `CCCCCCOc1nsnc1C1=CCCN(C)C1` [Xanomeline], the Emax is 106 ± 9% on M2 muscarinic receptor, 116 ± 9% at M4 muscarinic receptor [1], 86 ± 12% at M5 muscarinic receptor and 66 ± 6% on M3 muscarinic receptor.

Turning to `Cc1cc2c(s1)Nc1ccccc1N=C2N1CCN(C)CC1` [Olanzapine, olanzapine], the “% Efficacy M2” value at M2 muscarinic receptor (R-SAT, relative to full agonist carbachol, ± standard deviation) is recorded as “no response”. The “% Efficacy M4” value at M4 muscarinic receptor [2] was “no response”. In addition, at M5 muscarinic receptor (R-SAT, ± standard deviation), the “% Efficacy M5” value is “no response”.

As for `Clc1ccc2c(c1)N=C(N1CCNCC1)c1ccccc1N2` [N-desmethylclozapine, 8-chloro-11-(1-piperazinyl)-5H-dibenzo[b,e][1,4]diazepine], the EC50 at M2 muscarinic receptor was 182 nM; in [3] (pEC50 M1, R-SAT), 63.1 nM and 60.3 nM; at M5 muscarinic receptor (R-SAT, ± standard deviation, read-out: pEC50 M5 (converted)), 45.7 nM; at M3 muscarinic receptor, 129 nM; in data set [7], 100 nM. Moreover, the Emax on M2 muscarinic receptor was 78 ± 7%; in data set [3] (read-out: % Efficacy M1, R-SAT, relative to full agonist carbachol) it was 65%; at M4 muscarinic receptor [1], 88 ± 3%; on M5 muscarinic receptor, 66 ± 4%; at M3 muscarinic receptor it was 19 ± 3%; in data set [7] (read-out: % Efficacy M1, PI hydrolysis, relative to full agonist carbachol, ± standard deviation), over 65%. The “blood brain barrier penetration” value in data set [4] (concluded from central MAPK activation after s.c. dosing) is “penetrates the blood brain barrier”. For the same compound, the “MAPK activation in hippocampus” value in data set [4] (s.c., dose of 30 mg/kg) is listed as “Robust activation”. Also, the “phospho-MAPK immunoreactivity in CA1 pyramidal neurons” value in data set [4] (s.c., immunohistochemistry, compared to vehicle or clozapine treatment) is “increased phospho-MAPK immunoreactivity”. In data set [5], the “% Efficacy M1” value is listed as 61 ± 5%. The “pEC50 M1” value in [6] is 7.01 ± 0.06.

These data come from patent US20040224942A1 (priority 2003, published 2004).
